Experiments:
Format in all cases: biochemical, HIV-1
[1] = test system: NRTI-sensitive RT (93JP-NH1), purified p51/p66 heterodimer; experiment: RNA-dependent DNA polymerase activity, dTTP incorporation into poly (rA)·p(dT)12-18, steady-state kinetics; conditions: for fold increase in Ki^NRTI value compared to without ATP: at 3 mM of ATP
Method: (§1) RNA-dependent DNA polymerase activity was measured using [α-^32P]dTTP and poly(rA)/poly(dT)12-18 as described previously. […] These experiments were performed in duplicate and repeated two to six times.
(§2) The averages of the experimental data were fit by a nonlinear regression method using the program Igor Pro (WaveMetrics, USA). The kinetics parameters were determined by the Michaelis-Menten equation: [drawing 1] (1) where [S] is the substrate concentration; Km^app is the apparent Michaelis-Menten constant; and Vmax^app is the apparent maximal rate attained when the enzyme active sites are saturated by substrate.
(§3) Using this model, the enzyme kinetic parameters were calculated using Equations 2–5.
(§4) Vmax^app and Km^app are defined as [drawing 2] (2) and [drawing 3] (3) respectively, where Km is the Michaelis-Menten constant; [E] is the enzyme concentration; [I] is the inhibitor concentration; Ki and Ki′ are the inhibition constants for the enzyme and the complex of the enzyme with substrate; and kcat^app is the apparent turnover number: [drawing 4] (4) where kcat is the turnover number.
(§5) The kcat^app and Km^app that can be derived from the model (Figure 2C) are [drawing 5] (5) and [drawing 6] (6) where Ki^ATP is the dissociation constant of ATP; Ki^AZTTP is the dissociation constant of AZTTP; [I^ATP] is the ATP concentration; and [I^AZTTP] is the AZTTP concentration.

[2] = test system: multi-NRTI-resistant RT (ERT-mt6), purified p51/p66 heterodimer; experiment: as above; conditions: for fold increase in IC50 of AZTTP compared to AZTTP without the compound: in the presence of 5 mM of the indicated compound; for fold increase in Ki^NRTI value compared to without ATP: at 3 mM of ATP
Method: as §1, §2, §3, §4, §5

[3] = test system: D113A/N mutants of ERT-mt6 RT; experiment: RNA-dependent DNA polymerase activity of site-directed RT mutants from ERT-mt6; conditions: D113A/N versus ERT-mt6 RT; 5 mM ATP (Figure S4C)
Method: The purified RTs were dissolved in the RT stock buffer (50 mM Tris-HCl pH 7.5, 75 mM KCl, 5 mM MgCl2, 2 mM DTT, 0.05% NP40, and 50% glycerol)[32], [33] and kept at −30°C until use. RNA-dependent DNA polymerase activity was measured using [α-^32P]dTTP and poly(rA)/poly(dT)12-18 as described previously. For the RT reaction in the presence of ATP, RT activities were measured in 100 µl of RT reaction cocktail consisting of 50 mM Tris-HCl pH 7.5, 75 mM KCl, 5 mM MgCl2, 2 mM DTT, 0.05% NP40, and 50% glycerol containing RT (1–10 nM), dTTP (0.2–18 µM), and ATP (0–4 mM). For the RT reaction in the presence of ATP and NRTI, RT activities were measured in 100 µl of the RT reaction cocktail containing RT (1–10 nM), dTTP (0.2–18 µM), ATP (0–5 mM), and AZTTP or d4TTP (0–1 µM). These experiments were performed in duplicate and repeated two to six times. […]
Supplementary file pone.0008867.s004.tif: Figure S4 Data on RT mutants from the ERT-mt6 RT. […] RNA-dependent DNA polymerase activity of the purified RTs (20 nM) was measured using a [α-^32P]dTTP and poly (rA)⋅p(dT)12-18 system. […] RNA-dependent DNA polymerase activity of the purified mutant RTs was measured using various concentrations of [α-^32P]dTTP and poly (rA)⋅p(dT)12-18 in the presence of ATP. […]

[4] = 0-4 mM ATP, Lineweaver-Burk double-reciprocal plots
[5] = ATP binding to RT-template-primer complex (RT complex 1)
[6] = ATP binding to RT-template-primer-dTTP complex (RT complex 2)
[7] = dTTP incorporation, absence of ATP

NaPO4
fold increase in IC50 of AZTTP compared to AZTTP without the compound ([1]; in the presence of 5 mM of the indicated compound): little effect | fold increase in IC50 of AZTTP compared to AZTTP without the compound [2]: little effect

Nc1ncnc2c1ncn2[C@@H]1O[C@H](COP(=O)(O)OP(=O)(O)NP(=O)(O)O)[C@@H](O)[C@H]1O [AMP-PNP, Adenosine 5′-(β, γ-imido) triphosphate]
fold increase in IC50 of AZTTP compared to AZTTP without the compound [2]: approximately 150 fold

Nc1ncnc2c1ncn2[C@@H]1O[C@H](COP(=O)(O)OP(=O)(O)OP(=O)(O)O)[C@@H](O)[C@H]1O [ATP]
mode of inhibition of dTTP incorporation [1, 4]: mixed noncompetitive inhibition | Ki [1, 5]: 2900 ± 1300 µM | Ki′^ATP [1, 6]: 1200 ± 500 µM | mode of inhibition of dTTP incorporation [2, 4]: mixed noncompetitive inhibition | Ki [2, 5]: 2800 ± 1300 µM | Ki′^ATP [2, 6]: 1100 ± 400 µM | fold increase in IC50 of AZTTP compared to AZTTP without the compound [2]: approximately 350 fold

Cc1cn([C@H]2C=C[C@@H](COP(=O)(O)OP(=O)(O)OP(=O)(O)O)O2)c(=O)[nH]c1=O [d4TTP, 3′-deoxy-2′, and 3′-didehydrothymidine 5′-triphosphate]
fold increase in Ki^NRTI value compared to without ATP [1]: ~0.6 fold | fold increase in Ki^NRTI value compared to without ATP [2]: ~8.5 fold

Cc1cn([C@H]2C[C@H](O)[C@@H](COP(=O)(O)OP(=O)(O)OP(=O)(O)O)O2)c(=O)[nH]c1=O [dTTP]
kcat [1, 7]: 1.04 ± 0.01 s⁻¹ | Km ([1]; substrate dTTP, absence of ATP): 4 ± 0.1 µM | kcat [2, 7]: 0.49 ± 0.01 s⁻¹ | Km ([2]; substrate dTTP, absence of ATP): 13.8 ± 0.5 µM

Cc1cn([C@H]2C[C@H](N=[N+]=[N-])[C@@H](COP(=O)(O)OP(=O)(O)OP(=O)(O)O)O2)c(=O)[nH]c1=O [AZTTP, 3′-Azido 3′-deoxythymidine 5′-triphosphate]
fold increase in Ki^NRTI value compared to without ATP [1]: about 6.8 fold | fold increase in Ki^NRTI value compared to without ATP [2]: about 30 fold | fold reduction in the IC50 of AZTTP [3]: 4- to 5 fold
